Where “and” joins values, the source holds several entries; their conditions need not be identical. Identical values can stand only once. Like-named read-outs stand apart in the source and are kept apart here.
Columns and labels:
S1P receptor = experiment: Subtype selectivity study of compound A1, overall statement; format: cell-based; conditions: especially for S1P1 and S1P5 subtypes
Method: The S1P receptor selectivity was tested for different subtypes using the method described in Experimental Example 1.

[1] = Preliminary assessment of pharmacokinetics in mice; format: in vivo, CD-1 mice
Method: Dosing Regimen 9 CD-1 mice, male, weighing 20-26 g, were randomly divided into 3 groups with 3 mice in each group. The test compounds were administered intragastric, intravenously or intraperitoneally according to the following protocol. The mice were fasted for 12 h before the test and drank water freely. Food was consumed uniformly 2 h after administration. [table] The intragastric administration solution was prepared with DMSO/0.5% HPMC(5/95, v/v) to the final concentration. Intravenous and intraperitoneal administration solution was formulated with DMSO/PEG300/EtOH/NaCl(5/40/5/50, v/v/v). The sample of the administration solution was left (50 μL of the solution was mixed with 50 μL of DMSO before and after the administration, respectively) for test. The drug was given according to the above dose, the time of administration was recorded, and 20 μL of blood was taken from the femoral plexus of mice at the above set time points and placed in heparinized tubes. The blood was immediately centrifuged at 11000 rpm for 5 min. 10 μL of plasma was immediately and accurately sucked into a centrifuge tube prefilled with 100 μL of PK-IS solution (prepared with methanol: acetonitrile (1:1,v/v)), well mixed, and freezed at −20° C. for test.

## CC(C)Oc1ccc(-c2nc(-c3ccc(CN4CC(C(=O)O)C4)c4ccccc34)no2)cc1C#N.Cl [Compound A1, 1-((4-(5-(3-cyano-4-isopropoxyphenyl)-1,2,4-oxadiazol-3-yl)naphthalen-1-yl)methyl) azetidine-3-carboxylic acid hydrochloric acid]
S1P receptor
  selectivity for different S1P receptor subtypes: good selectivity
[1]; intraperitoneal injection 20 mg/kg, 0.05 h, individual animals 4-6, 20 mg/kg
  Concentration of A1 Drug in Plasma of Mice: 1105 ng/mL and 473 ng/mL and 715 ng/mL
[1]; intraperitoneal injection 20 mg/kg, 0.25 h, individual animals 4-6, 20 mg/kg
  Concentration of A1 Drug in Plasma of Mice: 827 ng/mL and 1507 ng/mL
[1]; intraperitoneal injection 20 mg/kg, 0.75 h, individual animals 4-6, 20 mg/kg
  Concentration of A1 Drug in Plasma of Mice: 1206 ng/mL and 1534 ng/mL and 3318 ng/mL
[1]; intraperitoneal injection 20 mg/kg, 2.00 h, individual animals 4-6, 20 mg/kg
  Concentration of A1 Drug in Plasma of Mice: 516 ng/mL and 1443 ng/mL and 4405 ng/mL
[1]; intraperitoneal injection 20 mg/kg, 4.00 h, individual animals 4-6, 20 mg/kg
  Concentration of A1 Drug in Plasma of Mice: 376 ng/mL and 201 ng/mL and 535 ng/mL
[1]; intraperitoneal injection 20 mg/kg, 8.00 h, individual animals 4-6, 20 mg/kg
  Concentration of A1 Drug in Plasma of Mice: 273 ng/mL and 78.2 ng/mL and 119 ng/mL
[1]; intraperitoneal injection 20 mg/kg, 24.0 h, individual animals 4-6, 20 mg/kg
  Concentration of A1 Drug in Plasma of Mice: 86.9 ng/mL and 26.5 ng/mL and 35.0 ng/mL
[1]; male, CD-1, mouse, plasma, intraperitoneal, 20 mg/kg, title: intraperitoneal 20 mg/kg, 0.25 h, mean, read-out: Concentration of A1 Drug in Plasma of Mice
  concentration at 0.25 h: 1740 ng/mL
[1]; male, CD-1, mouse, plasma, intraperitoneal, 20 mg/kg, title: intraperitoneal 20 mg/kg, 0.50 h, mean, read-out: Concentration of A1 Drug in Plasma of Mice
  concentration at 0.5 h: 2160 ng/mL
[1]; male, CD-1, mouse, plasma, intraperitoneal, 20 mg/kg, title: intraperitoneal 20 mg/kg, 1.00 h, mean, read-out: Concentration of A1 Drug in Plasma of Mice
  concentration at 1 h: 2600 ng/mL
[1]; male, CD-1, mouse, plasma, intraperitoneal, 20 mg/kg, title: intraperitoneal 20 mg/kg, 2.00 h, mean, read-out: Concentration of A1 Drug in Plasma of Mice
  concentration at 2 h: 1180 ng/mL
[1]; male, CD-1, mouse, plasma, intraperitoneal, 20 mg/kg, title: intraperitoneal 20 mg/kg, 4.00 h, mean, read-out: Concentration of A1 Drug in Plasma of Mice
  concentration at 4 h: 142 ng/mL
[1]; male, CD-1, mouse, plasma, intraperitoneal, 20 mg/kg, title: intraperitoneal 20 mg/kg, 8.00 h, mean, read-out: Concentration of A1 Drug in Plasma of Mice
  concentration at 8 h: 24.6 ng/mL
[1]; male, CD-1, mouse, plasma, intraperitoneal, 20 mg/kg, title: intraperitoneal 20 mg/kg, 24.0 h, individual animals 1-3, read-out: Concentration of A1 Drug in Plasma of Mice
  concentration at 24 h: 4.8 ng/mL
[1]; male, CD-1, mouse, plasma, intraperitoneal, 20 mg/kg, title: intraperitoneal 20 mg/kg, 24.0 h, mean, read-out: Concentration of A1 Drug in Plasma of Mice
  concentration at 24 h: 4.13 ng/mL
[1]; male, CD-1, mouse, plasma, ip, 20 mg/kg, intraperitoneal injection 20 mg/kg, 0.05 h, mean, read-out: Concentration of A1 Drug in Plasma of Mice
  concentration at 0.05 h: 764 ng/mL
[1]; male, CD-1, mouse, plasma, ip, 20 mg/kg, intraperitoneal injection 20 mg/kg, 0.25 h, individual animals 4-6, read-out: Concentration of A1 Drug in Plasma of Mice
  concentration at 0.25 h: 1170 ng/mL
[1]; male, CD-1, mouse, plasma, ip, 20 mg/kg, intraperitoneal injection 20 mg/kg, 0.25 h, mean, read-out: Concentration of A1 Drug in Plasma of Mice
  concentration at 0.25 h: 1170 ng/mL
[1]; male, CD-1, mouse, plasma, ip, 20 mg/kg, intraperitoneal injection 20 mg/kg, 0.75 h, mean, read-out: Concentration of A1 Drug in Plasma of Mice
  concentration at 0.75 h: 2020 ng/mL
[1]; male, CD-1, mouse, plasma, ip, 20 mg/kg, intraperitoneal injection 20 mg/kg, 2.00 h, mean, read-out: Concentration of A1 Drug in Plasma of Mice
  concentration at 2 h: 2120 ng/mL
[1]; male, CD-1, mouse, plasma, ip, 20 mg/kg, intraperitoneal injection 20 mg/kg, 4.00 h, mean, read-out: Concentration of A1 Drug in Plasma of Mice
  concentration at 4 h: 370 ng/mL
[1]; male, CD-1, mouse, plasma, ip, 20 mg/kg, intraperitoneal injection 20 mg/kg, 8.00 h, mean, read-out: Concentration of A1 Drug in Plasma of Mice
  concentration at 8 h: 157 ng/mL
[1]; male, CD-1, mouse, plasma, ip, 20 mg/kg, intraperitoneal injection 20 mg/kg, 24.0 h, mean, read-out: Concentration of A1 Drug in Plasma of Mice
  concentration at 24 h: 49.5 ng/mL
[1]; male, CD-1, mouse, plasma, po, 2 mg/kg, title: oral 2 mg/kg, 0.05 h, individual animals 4-6, read-out: Concentration of A1 Drug in Plasma of Mice
  concentration at 0.05 h: 1790 ng/mL
[1]; male, CD-1, mouse, plasma, po, 2 mg/kg, title: oral 2 mg/kg, 0.05 h, mean, read-out: Concentration of A1 Drug in Plasma of Mice
  concentration at 0.05 h: 1940 ng/mL
[1]; male, CD-1, mouse, plasma, po, 2 mg/kg, title: oral 2 mg/kg, 0.25 h, individual animals 4-6, read-out: Concentration of A1 Drug in Plasma of Mice
  concentration at 0.25 h: 1040 ng/mL
[1]; male, CD-1, mouse, plasma, po, 2 mg/kg, title: oral 2 mg/kg, 0.25 h, mean, read-out: Concentration of A1 Drug in Plasma of Mice
  concentration at 0.25 h: 878 ng/mL
[1]; male, CD-1, mouse, plasma, po, 2 mg/kg, title: oral 2 mg/kg, 0.75 h, individual animals 4-6, read-out: Concentration of A1 Drug in Plasma of Mice
  concentration at 0.75 h: 178 ng/mL
[1]; male, CD-1, mouse, plasma, po, 2 mg/kg, title: oral 2 mg/kg, 0.75 h, mean, read-out: Concentration of A1 Drug in Plasma of Mice
  concentration at 0.75 h: 169 ng/mL
[1]; male, CD-1, mouse, plasma, po, 2 mg/kg, title: oral 2 mg/kg, 2.00 h, individual animals 4-6, read-out: Concentration of A1 Drug in Plasma of Mice
  concentration at 2 h: 49.2 ng/mL
[1]; male, CD-1, mouse, plasma, po, 2 mg/kg, title: oral 2 mg/kg, 2.00 h, mean, read-out: Concentration of A1 Drug in Plasma of Mice
  concentration at 2 h: 49.8 ng/mL
[1]; male, CD-1, mouse, plasma, po, 2 mg/kg, title: oral 2 mg/kg, 4.00 h, mean, read-out: Concentration of A1 Drug in Plasma of Mice
  concentration at 4 h: 8.43 ng/mL
[1]; male, CD-1, mouse, plasma, po, 2 mg/kg, title: oral 2 mg/kg, 8.00 h, mean, read-out: Concentration of A1 Drug in Plasma of Mice
  concentration at 8 h: 3.97 ng/mL
